Settings: about 1200 mg/day calcium, about −500 kcal diet, about 12 weeks; control group about 20%
Description: For example, about eighty (80) obese, but otherwise healthy, men and women (average baseline BMI about 34 kg/m2) with an average CRP of about 6.0 mg/L at baseline could be randomized to about 2 groups for about a 12 week intervention. Both groups would consume reduced calorie diets (about −500 kcal) to promote weight loss, with the calcium intake in “the control group” adjusted to about 500 mg/day and in “the intervention group” adjusted to about 1200 mg/day using a calcium source. […] DEXA and hs-CRP measurement can be performed at baseline and about 12 weeks.

Question: Which “fat loss from trunkal region” value does the source give for `O=C([O-])[O-].[Ca+2]` [calcium carbonate] here?
Answer: about 50%

From US20080241279A1, “Materials and methods of using calcium for reduction of inflammation” (General Mills, Inc., priority 2004, published 2008)
